The values that follow come from patent publication US20250011347A1, “NOVEL PLASMALOGEN DERIVATIVE” (Institute of Rheological Function of Food Co., Ltd., priority 2021, published 2025).

Assay [1] deals with p65 (NFkB). Put plainly: LPS-induced p65 nuclear accumulation in BV2 microglial cells (Western blotting). It is filed as cell-based, mouse. The conditions noted are these: compound 5 μg/ml 12 hours, then LPS 1 μg/ml 2 hours, FIG. 2. On the procedure: Mouse microglial cells (BV2) were cultured using a DMEM medium containing 2% FBS (fetal bovine serum) for 12 hours under conditions with or without the addition of the compound of the present invention, KIT-008 or KIT-020 (5 μg/ml). Thereafter, it was treated with LPS (1 μg/ml) for 2 hours, proteins in the cell nucleus were extracted, and p65 (NFkB) protein expression was detected by Western blotting using NF-κB p65 (Cell Signaling Technology, the clone name: D14E12) as a primary antibody and Anti-Rabbit IgG HRP-linked antibody (Cell Signaling Technology) as a secondary antibody.
For orientation: In western blotting, separated proteins are transferred to a membrane and probed.

The test system of assay [2] is p65 (NFkB). The assay is described as follows: LPS-induced p65 nuclear accumulation in MG6 microglial cells (Western blotting). It is filed as cell-based, mouse. The conditions noted are these: compound 5 μg/ml 24 hours, then LPS 1 μg/ml 8 hours, FIG. 3. On the procedure:
Mouse microglial cells (MG6) were cultured using a DMEM medium containing 2% FBS (fetal bovine serum) for 24 hours under conditions with or without the addition of the compound of the present invention, KIT-019 or KIT-020 (5 μg/ml). Thereafter, it was treated with LPS (1 μg/ml) for 8 hours, proteins in the cell nucleus were extracted, and p65 (NFkB) protein expression was detected by Western blotting using NF-κB p65 (Cell Signaling Technology, the clone name: D14E12) as a primary antibody and Anti-Rabbit IgG HRP-linked antibody (Cell Signaling Technology) as a secondary antibody.

For assay [3], the system named is IL-1β protein. Put plainly: LPS-induced secreted IL-1β protein in MG6 microglial cells (ELISA). It is filed as cell-based, mouse. The conditions noted are these: compound 5 μg/ml 24 hours, then LPS 1 μg/ml 8 hours, ELISA of culture medium, FIG. 4. As to the method:
Five-thousand mouse microglial cells (MG6) were cultured in a 96-well dish containing 100 μl of a DMEM medium containing 2% FBS (fetal bovine serum). Then, 5 μg/ml of each of the compounds of the present invention, KIT-019 and KIT-020 was added and cultured for 24 hours. Thereafter, it was treated with LPS (1 μg/ml) for 8 hours. The culture medium was collected, and the secreted IL-1β protein was measured by ELISA using DuoSet Mouse IL-1β (R&D Systems).

Assay [4] relates to lysosomes in mouse neurons Neuro2a (N2a). The assay is described as follows: Impaired lysosomal acidification in Neuro2a neurons induced by culture supernatant of LPS-treated BV2. It is filed as cell-based. Particulars: N2a cells, compound 24 hours, then 24 hours in supernatant of LPS-treated BV2 with compound; LysoTracker Red; FIG. 10. As to the method: Lysosomes in mouse neurons Neuro2a (N2a) cultured in a normal DMEM medium were labeled with LysoPrime Green (Dojindo). LysoPrime Green is a fluorescent dye that is highly specific for lysosomes which are acidic organelles and that is resistant to pH changes.
Then, N2a is cultured in the culture supernatant of mouse glial cells BV2 treated with the endotoxin lipopolysaccharide (LPS) (1 μg/ml, 18 h) or the culture supernatant of untreated BV2, and labeled with LysoTracker™ Red DND-99 (Thermo Fisher Scientific) which targets acidic organelles.
That is, it was shown that acidification of the lysosomes in the neurons were impaired by glial cell-derived factors in the medium resulting from inflammation.
Each of the compounds of the present invention, KIT-008, KIT-019 and KIT-020 was added to the medium of N2a cells and cultured for 24 hours, and then cultured for another 24 hours in the culture supernatant of BV2 administered with LPS in the presence of each compound.

Assay [5] has as its system c57BL6J mice. Put plainly: Water maze test of mice with LPS-induced memory impairment. It is filed as in vivo, mouse. The conditions noted are these: 10 mg/50 kg/day in drinking water 4 weeks, then LPS 7 days, Trial 6, P<0.05, FIG. 12. On the procedure:
Specifically, 8-week-old male c57BL6J mice (5 mice in each group, n=5) were allowed to drink each of the compounds of the present invention (KIT-008 and KIT-020) at a dose of 10 mg/50 kg/day for 4 weeks, and were then subjected to LPS treatment (200 mg/kg/day) for 7 days while allowing them to drink the compound in the same manner. Thereafter, they were subjected to a water maze test for 2 days (3 trials per day).
Escape Latency indicates the time required to arrive at an escape platform (arrival time). Comparisons between groups were performed by ANOVA test and Bonferroni's post hoc test. […] Therefore, the compounds of the present invention are effective in improving brain function (cognitive function).

Assay [6] relates to amyloid beta (Aβ) deposition in hippocampal tissue. Put plainly: LPS-induced amyloid beta (Aβ) deposition in mouse hippocampal tissue (immunohistochemistry). It is filed as in vivo. Particulars: c57BL6J mice hippocampal tissue, 10 mg/50 kg/day in drinking water 4 weeks, then LPS 10 days; FIG. 13, 14. On the procedure: Specifically, 8-week-old male c57BL6J mice were allowed to drink each of the compounds of the present invention (KIT-008 and KIT-020) at a dose of 10 mg/50 kg/day for 4 weeks, and were then subjected to LPS treatment (200 mg/kg/day) for 10 days while allowing them to drink the compound in the same manner. The mouse hippocampal tissue was subjected to an immunohistochemistry test using an anti-amyloid beta antibody (a cocktail of two antibodies, 6E10 (BioLegend) and 82E1 (Immuno-Biological Laboratories Co, Ltd)). DAPI was used to stain a cell nucleus. In FIG. 13, the scale bar is 100 μm and the arrows indicate amyloid beta that deposited. The data in FIG. 14 represent the average number of amyloid beta deposition in each group (3 mice, n=3). In the LPS group, amyloid beta deposition was observed compared to the control group, but in the KIT-008 group and the KIT-020 group, amyloid beta deposition caused by LPS was suppressed.

Assay [7] deals with inducible nitric oxide synthase (iNOS). The assay is described as follows: LPS-induced iNOS expression in mouse hippocampal tissue (immunohistochemistry). Particulars: c57BL6J mice hippocampal tissue, 10 mg/50 kg/day in drinking water 4 weeks, then LPS 10 days; FIG. 15, 16. The assay is classed as in vivo. As to the method:
Specifically, 8-week-old male c57BL6J mice were allowed to drink each of the compounds of the present invention (KIT-008 and KIT-020) at a dose of 10 mg/50 kg/day for 4 weeks, and were then subjected to LPS treatment (200 mg/kg/day) for 10 days while allowing them to drink the compound in the same manner. The mouse brain tissue was subjected to an immunohistochemistry (IHC) study using an anti-NeuN antibody (a neuron marker, Millipore MAB377) and an anti-iNOS antibody (an inflammatory marker, Invitrogen PA1-036). DAPI was used to stain a cell nucleus.
In FIG. 15, the scale bar is 50 μm and the arrows indicate iNOS-positive neurons. The data in FIG. 16 represents the average value for each group (3 mice, n=3). In the LPS group, the number of iNOS-positive neurons increased compared to that in the control group, but in the KIT-008 group and the KIT-020 group, the increase in iNOS-positive neurons caused by LPS was suppressed.

Assay [8] deals with microglia (Iba1-positive cells) and astrocytes (GFAP-positive cells) in hippocampal tissue. The assay is described as follows: LPS-induced amoeboid shaped microglia and astrocytes increase in mouse hippocampal tissue (immunohistochemistry). The assay is classed as in vivo. The conditions noted are these: c57BL6J mice hippocampal tissue, 10 mg/50 kg/day in drinking water 4 weeks, then LPS 10 days. As to the method: Specifically, 8-week-old male c57BL6J mice were allowed to drink each of the compounds of the present invention (KIT-008 and KIT-020) at a dose of 10 mg/50 kg/day for 4 weeks, and were then subjected to LPS treatment (200 mg/kg/day) for 10 days while allowing them to drink the compound in the same manner. The mouse brain tissue was subjected to an immunohistochemistry (IHC) study using Iba1 (a microglia marker, Fujifilm 019-19741) and GFAP (an astrocyte marker, Sigma C9205). DAPI was used to stain a cell nucleus. In FIG. 17, the scale bar is 100 μm. The data in FIG. 18 represent the percentages of amoeboid shaped microglia and amoeboid shaped astrocytes (upper graphs) and the number of astrocytes (GFAP-positive cells) (a lower graph) in each group (3 mice, n=3). In the LPS group, the amoeboid shaped microglia (Iba1-positive cells) and the amoeboid shaped astrocytes (GFAP-positive cells) increased compared to the control group. In addition, the astrocytes (GFAP-positive cells) increased. However, in the KIT-008 group and the KIT-020 group, the LPS-induced amoeboid shaped microglia (Iba1-positive cells) increase and amoeboid shaped astrocytes (GFAP-positive cells) increase and astrocytes (GFAP-positive cells) increase were suppressed.

With `CCCCC/C=C\C/C=C\C/C=C\C/C=C\CCCC(=O)O[C@H](COC/C=C/CCCCCCCCCCCCCCC)COP(=O)(O)OCCN` [KIT-020, 2-((hydroxy((R)-2-(((5Z,8Z,11Z,14Z)-icosa-5,8,11,14-tetraenoyl)oxy)-3-(((E)-octadec-2-en-1-yl)oxy)propoxy)phosphoryl)oxy)ethane-1-ammonium 2,2,2-trifluoroacetate], the “LPS-induced p65 nuclear accumulation” value in assay [1] and in assay [2] was “significantly suppressed” in each case. For the same compound, the “LPS-induced inflammatory cytokine IL-1β protein expression” value in assay [3] was “significantly reduced”. Moreover, the “impaired acidification of lysosomes in neurons caused by glial cell-derived factors” value in assay [4] was “ameliorated”. Further, the “memory retention (Escape Latency) compared to the LPS group” value in assay [5] is “improvement in memory retention”. In addition, in assay [6], the “amyloid beta deposition caused by LPS” value is “suppressed”. Further, the “increase in iNOS-positive neurons caused by LPS” value in assay [7] is “suppressed”. Moreover, the “LPS-induced amoeboid shaped astrocytes (GFAP-positive cells) increase” value in assay [8] (FIG. 17, 18) is on record as “suppressed”. For the same compound, the “LPS-induced amoeboid shaped microglia (Iba1-positive cells) increase” value in assay [8] (FIG. 17, 18) is given as “suppressed”. Also, the “LPS-induced astrocytes (GFAP-positive cells) increase (number)” value in assay [8] (FIG. 18 lower graph) was “suppressed”.

As for `CCCCCCCC/C=C\CCCCCCCC(=O)O[C@H](COC/C=C/CCCCCCCCCCCCCCC)COP(=O)(O)OCCN` [KIT-019, 2-((hydroxy((R)-3-3-(((E)-octadec-2-en-1-yl)oxy)-2-(oleoyloxy)propyl)phosphoryl)oxy)ethane-1-ammonium 2,2,2-trifluoroacetate], the “LPS-induced p65 nuclear accumulation” value in assay [2] is “significantly suppressed”. In addition, the “LPS-induced inflammatory cytokine IL-1β protein expression” value in assay [3] is listed as “significantly reduced”. The “impaired acidification of lysosomes in neurons caused by glial cell-derived factors” value in assay [4] is recorded as “ameliorated”.
